Reference: patent US20240284918A1, “INSECT REPELLENT COMPOSITION AND A METHOD OF REPELLING INSECTS” (Åbo Akademi, priority 2021, published 2024)

How the values were obtained:
[1] = system: Ixodes Ricinus (male, female and nymphs); test: Tick repellent testing (treated cylinder/stick and human volunteer's forearm); assay type: in vivo; details: stick test, FIG. 4
Aedes albopictus = test: Mosquito repellent testing on human forearm in test cage (ASTM E951-83); assay type: in vivo; details: text summary of Table 4
Method: The mosquitos used in this study were Aedes albopictus. Mosquito repellent activity of the tested samples (listed in Table 2) was assessed by using the test cage as described by Songkro et al (2012), in the American Society for Testing and Materials (ASTM) standard […]-83 Laboratory testing of non-commercial mosquito repellent composition on the skin. The sample was tested on human subject. The same volunteers tested all the formulations under laboratory conditions. According to the method described by Coucci and Müller (2018), 50 adult female Aedes albopictus mosquitoes were transferred into the mosquito proof enclosed cage with the help of aspirator tube. The compositions to be tested were applied to the forearm ([…]) of the volunteers. The applied hand was introduced into the cage and the number of bites was recorded. After every 30 minutes the volunteer hands were subjected to the cage for 5 minutes and the numbers of mosquito bites were noted. Same procedure was implemented for control. Control study is done by placing the forearm in cage without application of tested sample. Before starting each replication, the mosquitoes' propensity to bite is assessed by inserting an untreated forearm into the cage. […] According to this procedure different compositions were tested by applying on the forearm with fresh mosquitoes every time of testing.

[2] = system: Ixodes larvae, nymph forms and adults (female and male); test: Field testing, treated tick sheet dragging; assay type: in vivo; details: treated cotton sheet dragged 35 x 10 m; 5% vanillin in all FA and HFA solutions; vs commercial product Punkkiassa (19% IR3535)
Excerpt: Tick-dragging method was adopted to study the effectiveness of the product in repelling ticks in their natural habitat in Ruissalo, Turku. A square of 1 m^2 cotton sheet was divided in three parallel divisions and the borders were marked with pencil: 100*45 cm division on both sides (A and B) and a 100*10 cm neutral strip in the middle (N). Both A and B were both treated with a solution from a solution test pair (or left untreated for control drags) from that side of the sheet that would face the ground during dragging. The neutral zone was always left untreated. The evenly sprayed solution was let settle on the sheet for ˜15 minutes before the first drag. The sheet was dragged for 10 m with the treated side down with moderate pace in an even, tick-friendly biotope. After every 10 meter drag, the treated side was inspected for Ixodes larvae, nymph forms and adults (female and male). Number of individuals in every (4) form per department (A, B or N) was counted. Every test pair/sheet was dragged 35 times during the same day between 08:00 AM and 02:00 PM. No new solution was added to the sheet during the day. The time of start for every draw was checked. We tested different product types for field studies like FA (5, 10, 20%) and HFA (10 & 20%) and also included a commercial tick repellent (Punkkiassa) as a positive control. […]

[3] = system: nymphs and the female ticks of the Ixodus ricinu species; test: Tick repellency of IR3535 (test results received from Entostudio laboratory, Italy); details: in vivo

SMILES	tick repellent activity (in words) [1]	mosquito repellent activity (in words) (Aedes albopictus)	repellency of nymphs in field test (FIG. 5) [2]	repellency of nymphs and female ticks [3]
C=C1CC[C@H]2O[C@]2(C)CC[C@@H]2[C@@H]1CC2(C)C [Caryophyllene oxide]	not very effective	–	–	–
CC(=O)CC/C=C(\C)CC/C=C(\C)CCC=C(C)C [FA, Farnesyl acetone]	–	efficient repellent activity	repelled nymphs very effectively compared to the commercial product	–
CC(=O)CCCC(C)CCCC(C)CCCC(C)C (stereo not drawn) [HFA, 6,10,14-trimethyl-pentadecanone]	–	efficient repellent activity	repelled nymphs very effectively compared to the commercial product	–
CCCCN(CCC(=O)OCC)C(C)=O [IR3535, 3-[N-butyl-N-acetyl]-aminopropionic acid, ethyl ester]	–	–	–	does not repel the nymphs and the female ticks
